Test results published in US11752125B2, “Anti-neuroinflammatory and protective compounds in Achillea fragrantissima” (THE STATE OF ISRAEL MINISTRY OF AGRICULTURE & RURAL …, priority 2013, dated 2023).

Assays:
[1] = test system: N2a neuronal cells; test: SNP-induced ROS elevation in N2a cells; assay type: cell-based; details: TTF 2 μM; SNP 250 μM; 20 h
Method: N2a neuronal cells were pre-loaded with DCF-DA for 30 min and washed. TTF (2 μM) was added to cells before (−2 h, −1 h), concomitant with (0) or after (1 h, 2 h) the addition of SNP (250 μM). ROS levels in neuronal cells were measured 20 h after the application of SNP. The results are shown in FIG. 18 and are the mean±SEM of two different experiments (n=15).

[2] = test system: MEK1; test: SNP-induced MEK1 phosphorylation in N2a cells (ELISA); assay type: cell-based; details: concomitant treatment 40 min, total protein not affected
Method: N2a cells were treated concomitantly with SNP and TTF for 40 min. Cells were extracted and the levels of phosphorylated or total MEK1 were determined by specific ELISA kits. The results are shown in FIG. 20 are the mean±SEM of two different experiments […].

[3] = test system: CREB; test: H2O2-induced CREB phosphorylation in astrocytes (ELISA); assay type: cell-based, rat; details: astrocytes pretreated 2 h, H2O2 175 μM 30 min; total CREB not affected
Method: Astrocytes were treated with TTF 2 h before the addition of H2O2. Cells were lysed 40 minutes after the addition of H2O2 in lysis buffer supplied by PathScan sandwich ELISA kit (Cell Signaling TECHNOLOGY) according to the manufacturer's protocol. Protein concentrations in cell lysates were determined by Bradford reagent (Bio-Rad, Hercules, Calif.), and equal amounts of proteins were subjected to ELISA. To measure the amount of total and phosphoSAPK/JNK in cell lysates of astrocytes, ELISA was performed according to the manufacturer's protocol using the PathScan total SAPK/JNK sandwich ELISA kit (Cell Signaling TECHNOLOGY) and the PathScan phospho-SAPK/JNK (Thr183/Tyr185) sandwich ELISA kit (Cell Signaling TECHNOLOGY), respectively. […] The optical density was determined at 450 nm using a microplate reader.
1. […] Determine the optical density at 450 nm using a microplate reader.
Astrocytes were treated with 175 μM of H2O2 for 30 min following preincubation with TTF for 2 h. The levels of phosphorylated and total CREB were measured by ELISA. […]

[4] = test system: microglial cells; test: Cellular antioxidant activity (ABAP peroxyl radicals) in microglial cells; assay type: cell-based, rat; details: ABAP 0.6 mM, dexamethasone at nanomolar concentrations
Method: Intracellular ROS production was detected using the non-fluorescent cell permeating compound, 2′7′-dichlorofluorescein diacetate (DCF-DA). DCF-DA is hydrolyzed by intracellular esterases and then oxidized by ROS to a fluorescent compound 2′-7′-DCF. Peroxyl radicals are generated by thermolysis of 2,2′-Azobis(amidinopropane) (ABAP) at physiological temperature. ABAP decomposes at approximately 1.36×10^−6s^−1 at 37° C., producing at most 1×10^12 radicals/mL/s. Microglial cells (130,000 cells/well) were plated in DMEM containing 2% FBS, 8.4 mM HEPES, 2 mM glutamine, 100 U/mL penicillin and 100 μg/mL streptomycin, onto 24 wells plates. In order to measure the ability of achillolide A to enter the cells and prevent the formation of DCF by ABAP-generated peroxyl radicals, cells were incubated for 1 h with achillolide A. Then cells were preloaded with DCF-DA for 30 min, washed twice with PBS, and ABAP (0.6 mM final concentration) was then added. The fluorescence, which indicates ROS levels, was measured in a plate reader with excitation at 485 nm and emission at 520 nm.
Cells were incubated for 1 h with different concentrations of achillolide A. Then, the cells were pre-loaded with DCF-DA for 30 min and washed. ABAP (0.6 mM) was added to the culture and ROS levels were measured at the indicated time points. […]

| Compound | effect on SNP-induced ROS elevation [1] | effect on SNP-induced phosphorylation of MEK1 [2] | inhibition of H2O2-induced phosphorylation of CREB [3] [%] | inhibition of the ABAP-induced increase in ROS fluorescence [4] [%] |
| --- | --- | --- | --- | --- |
| COc1cc(-c2oc3cc(OC)c(OC)c(O)c3c(=O)c2O)ccc1O [TTF, 3,5,4′-trihydroxy-6,7,3′-trimethoxyflavone] | attenuates the elevation in ROS levels | significantly inhibited | 80 |  |
| C=C1CCC2=C(CO)C(=O)O[C@H]2/C=C(\C)[C@H](OC(C)=O)CC1=O [achillolide A] |  |  |  | 54 |
